The values that follow come from patent US11375718B2, “Use of prodigiosin in resisting potyvirus” (priority 2020, dated 2022).

The structures appear in SMILES notation. Residues, ends and D or L forms follow the SMILES beside them. *: point of attachment. Cbz = O=C(OCc1ccccc1)*

Assay [1] has as its system 26S proteasome complex. To be noted: read-out: IC50 (proteasome inhibitor); cited from earlier work.
For assay [2], the system named is Hsp70 protein. Nature of the assay: Western blot of Hsp70 protein in MG-132-treated plants induced by prodigiosin S3. The format is in vivo, Nicotiana benthamiana. As to the method: In order to further analyze the role of ubiquitination modification in the antiviral mechanism of prodigiosin S3, we used MG-132 to treat Nicotiana benthamiana in advance. After 2 h, 0.05 μg/L prodigiosin was applied on the tobacco leaf surface uniformly according to 15 L/mu. After 30 minutes, TMV and PVY viruses were inoculated. The samples of 1 d, 2 d and 3 d after virus inoculation were collected for Western Blot analysis.
In general terms: Immunoblotting shows a protein as a band on a membrane.

Assay [3] is described as follows: Quantitative proteomics and ubiquitination omics of prodigiosin-treated tobacco leaves. To be noted: treatment group vs control group, p<0.05. The format is in vivo, Nicotiana benthamiana. An excerpt: In order to further understand the mechanism of systemic resistance of a plant induced by prodigiosin, the prodigiosin treated Nicotiana benthamiana was used as a target material, the optimal reaction time point of prodigiosin against PVY was selected, and the quantitative proteomics and ubiquitinated nonstandard quantitative proteomics in tobacco leaves were studied by organically combining a series of advanced technologies such as non-standard quantitative technology, high performance liquid chromatography (HPLC) fractionation technology, ubiquitinated peptide enrichment technology and quantitative proteomics technology based on mass spectrometry.
Extraction of protein. The leaf sample was taken from −80° C., put in a mortar precooled with liquid nitrogen, fed with liquid nitrogen, and fully ground to powder; 4 times the volume of powdered lysis buffer (8 M urea, 1% TritonX-100, 10 mM DTT, 1% protease inhibitor and 50 μM PR-619) was added for ultrasonic lysis; followed by 10 min of centrifugation (4° C., 20000 g), the supernatant was carefully aspirated off, and trichloroacetic acid was added to a final concentration of 20%; the mixture was left at 4° C. for 2 h; and centrifuged (4° C., 20000 g) for 3 min. The supernatant was discharged, and the precipitate was washed with precooled acetone for three times; the precipitate was re-dissolved (8 M urea) and the protein concentration was determined.
Proteolysis. DTT was added to the protein solution to a final concentration of 5 mM and was reduced at 56° C. for 30 min. Iodoacetamide was then added and incubated for 15 min at room temperature away from light. Pancreatin was added based on a mass ratio of pancreatin:protein=1:50 and enzymolysis was performed at 37° C. overnight. Pancreatin was added again based on a mass ratio of pancreatin:protein=1:100 and enzymolysis was continued for 4 h.
HPLC Fractionation. The enzymatic solution was fractionated by high pH reverse phase HPLC on an Agilent 300 Extend C18 (5 μm particle size, 4.6 mm internal diameter, 250 mm length) column. The operation was as follows: a peptide fragment grading gradient was 8%-32% acetonitrile, the pH was 9; 60 components were separated in 60 min, then the components were combined into 4 components, and the combined components were subjected to lyophilization for subsequent operations.
HPLC-MS Analysis. The lyophilized fractions were analyzed by HPLC-MS: dissolved by a mobile phase A phase (0.1% (v/v) formic acid in water) and separated using EASY-nLC 1000 ultra high performance liquid phase system. […]
Database Search. […] Differential genes and proteins were analyzed by GO enrichment, and KEGG pathway.

Assay [4] relates to PVY. Nature of the assay: Induced resistance of tobacco to PVY after leaf application of prodigiosin. The format is in vivo, Nicotiana tabacum cv. NC89. To be noted: infiltration treatment. How it is done:
(§1) The plant material used in this experiment was Nicotiana tabacum cv. NC89, reproduced by our laboratory and cultivated in a greenhouse. Experimental plant culture conditions included: illumination 16 h, temperature 25±1° C., illumination intensity 2000 lux and relative humidity 60%; and dark duration 8 h, temperature 25±1° C. and relative humidity 60%. The nutrient substrate was produced by the Wode nutrient soil processing plant in Shouguang City, Shandong Province, and no additional fertilization was needed during plant growth. The sources of TMV and PVY were preserved by the Plant Protection Research Center of the Institute of Tobacco Research of CAAC (Chinese Academy of Agricultural Sciences), and were propagated and preserved on Nicotiana tabacum cv. NC89 grown in the greenhouse. The prodigiosin S3 was isolated and purified from Serratia marcescens fermentation broth by Plant Protection Research Center of the Institute of Tobacco Research of CAAC.

The test system of assay [5] is TMV. Nature of the assay: Induced resistance of tobacco to TMV after leaf application of prodigiosin. In kind it is in vivo, Nicotiana tabacum cv. NC89. To be noted: infiltration treatment. How it is done:
as §1

[6] abbreviates: 2031 sites on 1110 proteins identified.

Broadly, the IC50 is the concentration at which inhibition is half-maximal. Take `CC(C)C[C@@H](C=O)NC(=O)[C@H](CC(C)C)NC(=O)[C@H](CC(C)C)NC(=O)OCc1ccccc1` [MG-132] (Cbz-Leu-Leu-Leu-aldehyde): the IC50 in assay [1] is 100 nM. The “content of Hsp70 protein” value in assay [2] (MG-132-treated samples induced by prodigiosin S3) is given as “increases significantly”. Moreover, the “accumulation of Hsp70 protein” value in assay [2] (MG-132 in advance, after 2 h 0.05 μg/L prodigiosin at 15 L/mu, inoculated after 30 minutes, PVY virus 1 d, vs control group) is reported as “significantly increased”.
With `CCCCCC1=C/C(=C/c2[nH]c(-c3ccc[nH]3)cc2OC)N=C1C` [prodigiosin], in assay [3] (setting [6]), the “number of ubiquitination sites with down-regulated modification level” value turned out to be 21 and the “number of ubiquitination sites with up-regulated modification level” value is listed as 33. Further, in assay [3] (6122 proteins identified), the “number of proteins with down-regulated expression” value was 186 and the “number of proteins with up-regulated expression” value turned out to be 223. Moreover, the “induced resistance to PVY” value in assay [4] came to 100%. The “induced resistance to TMV” value in assay [5] stood at 100%.
